The kinase profiling compilation of Christmann-Franck et al. (2016)

Assays:
Experiment in all cases: Caliper, Mobility shift assay off-chip
[1] = tested on: ABL1 (human), P00519 [H396P]
AKT3 (human) = AKT3 (human) (UniProt Q9Y243)
AURKA (human) = AURKA (human) (UniProt O14965)
BMX (human) = BMX (human) (UniProt P51813)
CAMK2D (human) = CAMK2D (human) (UniProt Q13557); conditions: compound 1.0 µM
CHEK1 (human) = CHEK1 (human) (UniProt O14757)
CSNK1A1 (human) = CSNK1A1 (human) (UniProt P48729)
DYRK1A (human) = DYRK1A (human) (UniProt Q13627)
EGFR (human) = EGFR (human) (UniProt P00533)
[2] = tested on: FLT3 (human), P36888 [D835Y]
GSK3B (human) = GSK3B (human) (UniProt P49841)
Chain of GSK3B (human) (P49841 whole entry, looked up): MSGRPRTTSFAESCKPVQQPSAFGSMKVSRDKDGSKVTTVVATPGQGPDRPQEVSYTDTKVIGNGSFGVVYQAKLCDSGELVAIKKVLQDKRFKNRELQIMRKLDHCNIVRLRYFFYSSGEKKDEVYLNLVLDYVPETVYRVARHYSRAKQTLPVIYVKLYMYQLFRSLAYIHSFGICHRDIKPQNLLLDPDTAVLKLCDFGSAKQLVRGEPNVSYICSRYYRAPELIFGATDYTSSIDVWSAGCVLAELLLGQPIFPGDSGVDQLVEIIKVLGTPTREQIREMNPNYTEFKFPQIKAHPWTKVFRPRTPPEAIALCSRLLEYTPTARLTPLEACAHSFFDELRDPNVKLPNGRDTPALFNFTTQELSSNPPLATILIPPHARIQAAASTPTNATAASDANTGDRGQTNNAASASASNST

HCK (human) = HCK (human) (UniProt P08631)
IRAK4 (human) = IRAK4 (human) (UniProt Q9NWZ3)
KDR (human) = KDR (human) (UniProt P35968)
LCK (human) = LCK (human) (UniProt P06239)
Chain of LCK (human) (P06239 whole entry, looked up): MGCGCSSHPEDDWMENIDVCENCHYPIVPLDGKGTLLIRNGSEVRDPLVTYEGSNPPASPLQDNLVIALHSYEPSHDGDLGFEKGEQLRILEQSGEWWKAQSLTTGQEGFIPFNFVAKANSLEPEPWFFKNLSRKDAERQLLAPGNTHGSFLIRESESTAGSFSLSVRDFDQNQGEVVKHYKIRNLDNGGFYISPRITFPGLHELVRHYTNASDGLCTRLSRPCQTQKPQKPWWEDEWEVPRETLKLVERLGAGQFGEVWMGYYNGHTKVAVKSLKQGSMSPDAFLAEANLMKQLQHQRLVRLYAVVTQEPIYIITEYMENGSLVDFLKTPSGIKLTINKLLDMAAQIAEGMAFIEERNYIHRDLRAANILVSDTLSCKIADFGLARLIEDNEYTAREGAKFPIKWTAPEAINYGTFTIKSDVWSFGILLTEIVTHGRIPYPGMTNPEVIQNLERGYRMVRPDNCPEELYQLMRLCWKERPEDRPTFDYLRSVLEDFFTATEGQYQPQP

LYN (human) = LYN (human) (UniProt P07948)
Chain of LYN (human) (P07948 whole entry, looked up): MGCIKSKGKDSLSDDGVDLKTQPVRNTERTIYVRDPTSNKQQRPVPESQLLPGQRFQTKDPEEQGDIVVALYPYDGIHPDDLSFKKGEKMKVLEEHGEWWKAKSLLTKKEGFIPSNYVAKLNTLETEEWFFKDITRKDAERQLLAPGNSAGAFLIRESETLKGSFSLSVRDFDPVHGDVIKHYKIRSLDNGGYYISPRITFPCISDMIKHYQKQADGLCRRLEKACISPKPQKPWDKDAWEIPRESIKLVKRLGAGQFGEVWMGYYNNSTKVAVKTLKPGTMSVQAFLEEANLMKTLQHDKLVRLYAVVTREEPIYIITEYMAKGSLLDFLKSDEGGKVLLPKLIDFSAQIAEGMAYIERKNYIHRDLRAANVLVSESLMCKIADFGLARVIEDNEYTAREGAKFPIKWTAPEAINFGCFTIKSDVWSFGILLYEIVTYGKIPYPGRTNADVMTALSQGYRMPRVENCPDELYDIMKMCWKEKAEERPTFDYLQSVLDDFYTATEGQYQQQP

MAPK11 (human) = MAPK11 (human) (UniProt Q15759)
MAPK13 (human) = MAPK13 (human) (UniProt O15264)
Chain of MAPK13 (human) (O15264 whole entry, looked up): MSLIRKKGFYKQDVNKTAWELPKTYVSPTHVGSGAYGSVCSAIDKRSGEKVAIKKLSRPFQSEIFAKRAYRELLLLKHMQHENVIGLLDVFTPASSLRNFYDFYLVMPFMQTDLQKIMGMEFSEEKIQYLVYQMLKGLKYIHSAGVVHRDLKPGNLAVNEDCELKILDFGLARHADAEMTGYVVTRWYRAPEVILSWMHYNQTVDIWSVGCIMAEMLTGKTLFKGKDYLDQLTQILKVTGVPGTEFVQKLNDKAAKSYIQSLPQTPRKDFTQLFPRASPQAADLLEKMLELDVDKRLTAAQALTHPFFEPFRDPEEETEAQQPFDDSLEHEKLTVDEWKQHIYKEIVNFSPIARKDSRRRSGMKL

MAPK3 (human) = MAPK3 (human) (UniProt P27361)
MAPKAPK2 (human) = MAPKAPK2 (human) (UniProt P49137)
Chain of MAPKAPK2 (human) (P49137 whole entry, looked up): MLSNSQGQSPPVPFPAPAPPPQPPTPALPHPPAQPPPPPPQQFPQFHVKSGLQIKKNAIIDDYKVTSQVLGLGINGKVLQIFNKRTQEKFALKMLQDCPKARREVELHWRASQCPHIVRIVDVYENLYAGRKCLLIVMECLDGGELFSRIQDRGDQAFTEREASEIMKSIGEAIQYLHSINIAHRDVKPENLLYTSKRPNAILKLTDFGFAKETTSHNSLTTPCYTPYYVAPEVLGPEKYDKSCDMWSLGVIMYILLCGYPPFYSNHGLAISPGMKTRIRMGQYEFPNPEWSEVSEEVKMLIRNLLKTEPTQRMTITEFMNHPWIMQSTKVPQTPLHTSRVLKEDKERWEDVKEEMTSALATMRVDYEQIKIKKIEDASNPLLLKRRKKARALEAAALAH

MAPKAPK5 (human) = MAPKAPK5 (human) (UniProt Q8IW41)
MARK2 (human) = MARK2 (human) (UniProt Q7KZI7)
Chain of MARK2 (human) (Q7KZI7 whole entry, looked up): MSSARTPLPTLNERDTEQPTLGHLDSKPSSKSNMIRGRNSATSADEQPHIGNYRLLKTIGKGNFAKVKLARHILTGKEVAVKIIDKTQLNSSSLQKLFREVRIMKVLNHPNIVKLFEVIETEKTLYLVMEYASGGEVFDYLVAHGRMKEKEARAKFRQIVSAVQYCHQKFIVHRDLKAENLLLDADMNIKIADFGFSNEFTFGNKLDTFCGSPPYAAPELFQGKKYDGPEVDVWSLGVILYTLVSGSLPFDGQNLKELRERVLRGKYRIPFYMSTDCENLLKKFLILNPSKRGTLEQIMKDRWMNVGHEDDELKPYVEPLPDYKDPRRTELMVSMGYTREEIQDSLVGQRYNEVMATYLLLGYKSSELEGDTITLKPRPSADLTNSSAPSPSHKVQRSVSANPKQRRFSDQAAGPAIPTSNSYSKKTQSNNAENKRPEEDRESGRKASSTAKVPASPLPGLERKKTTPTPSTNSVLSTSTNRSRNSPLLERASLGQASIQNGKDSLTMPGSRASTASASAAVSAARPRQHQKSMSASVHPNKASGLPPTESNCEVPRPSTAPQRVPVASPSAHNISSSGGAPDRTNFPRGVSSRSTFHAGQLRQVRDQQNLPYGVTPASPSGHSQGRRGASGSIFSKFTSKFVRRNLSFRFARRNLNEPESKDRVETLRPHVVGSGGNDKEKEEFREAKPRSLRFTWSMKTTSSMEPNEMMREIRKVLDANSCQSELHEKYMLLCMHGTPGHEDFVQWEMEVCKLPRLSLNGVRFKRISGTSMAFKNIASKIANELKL

MARK3 (human) = MARK3 (human) (UniProt P27448)
PIM2 (human) = PIM2 (human) (UniProt Q9P1W9)
PRKACA (human) = PRKACA (human) (UniProt P17612)
PRKCB2 (human) = PRKCB2 (human) (UniProt P05771)
PRKCH (human) = PRKCH (human) (UniProt P24723)
PRKCQ (human) = PRKCQ (human) (UniProt Q04759)
RAF1 (human) = RAF1 (human) (UniProt P04049)
RPS6KA1 KD1 KD2 (human) = RPS6KA1 KD1 KD2 (human) (UniProt Q15418)
Chain of RPS6KA1 KD1 KD2 (human) (Q15418 whole entry, looked up): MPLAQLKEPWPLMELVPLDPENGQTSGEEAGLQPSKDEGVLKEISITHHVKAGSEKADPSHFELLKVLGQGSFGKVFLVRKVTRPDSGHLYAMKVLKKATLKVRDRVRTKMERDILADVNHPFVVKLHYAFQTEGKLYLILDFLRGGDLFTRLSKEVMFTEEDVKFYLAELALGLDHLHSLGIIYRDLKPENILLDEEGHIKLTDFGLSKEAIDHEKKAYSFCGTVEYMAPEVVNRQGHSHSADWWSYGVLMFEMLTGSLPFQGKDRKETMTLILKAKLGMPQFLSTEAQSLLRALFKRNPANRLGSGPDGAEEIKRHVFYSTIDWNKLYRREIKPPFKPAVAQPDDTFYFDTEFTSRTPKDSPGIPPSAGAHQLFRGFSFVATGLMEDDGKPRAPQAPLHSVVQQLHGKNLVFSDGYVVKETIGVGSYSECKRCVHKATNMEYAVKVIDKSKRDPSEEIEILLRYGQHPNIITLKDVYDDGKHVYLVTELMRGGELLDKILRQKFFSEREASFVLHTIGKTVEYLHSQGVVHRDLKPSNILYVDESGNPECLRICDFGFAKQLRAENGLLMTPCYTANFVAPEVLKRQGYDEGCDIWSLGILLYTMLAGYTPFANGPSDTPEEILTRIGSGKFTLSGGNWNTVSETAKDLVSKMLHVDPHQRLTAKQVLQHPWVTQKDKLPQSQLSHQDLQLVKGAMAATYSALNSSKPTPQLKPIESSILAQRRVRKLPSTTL

RPS6KA4 KD1 KD2 (human) = RPS6KA4 KD1 KD2 (human) (UniProt O75676)
Chain of RPS6KA4 KD1 KD2 (human) (O75676 whole entry, looked up): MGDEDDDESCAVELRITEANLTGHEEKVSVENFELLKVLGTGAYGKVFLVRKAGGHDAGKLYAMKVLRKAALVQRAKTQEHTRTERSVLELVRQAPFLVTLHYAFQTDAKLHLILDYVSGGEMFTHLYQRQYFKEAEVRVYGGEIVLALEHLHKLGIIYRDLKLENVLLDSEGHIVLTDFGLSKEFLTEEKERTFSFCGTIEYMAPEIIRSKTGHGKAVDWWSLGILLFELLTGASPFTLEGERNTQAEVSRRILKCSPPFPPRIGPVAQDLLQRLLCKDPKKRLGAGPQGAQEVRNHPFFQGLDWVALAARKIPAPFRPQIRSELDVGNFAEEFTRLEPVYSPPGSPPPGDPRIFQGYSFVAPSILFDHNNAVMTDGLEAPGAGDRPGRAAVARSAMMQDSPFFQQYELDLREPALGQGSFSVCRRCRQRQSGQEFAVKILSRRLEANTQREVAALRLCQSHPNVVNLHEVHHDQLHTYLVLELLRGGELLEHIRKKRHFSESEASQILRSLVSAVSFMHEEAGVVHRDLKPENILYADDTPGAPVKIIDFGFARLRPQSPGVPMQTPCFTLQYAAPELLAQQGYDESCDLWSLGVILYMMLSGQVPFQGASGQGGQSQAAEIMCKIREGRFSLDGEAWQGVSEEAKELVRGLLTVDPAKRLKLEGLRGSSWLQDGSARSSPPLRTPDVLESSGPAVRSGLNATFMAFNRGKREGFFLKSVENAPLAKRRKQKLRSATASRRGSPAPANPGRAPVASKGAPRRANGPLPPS

SGK1 (human) = SGK1 (human) (UniProt O00141)
STK3 (human) = STK3 (human) (UniProt Q13188)
SYK (human) = SYK (human) (UniProt P43405)

Chain of CHEK1 (human) (O14757 whole entry, looked up): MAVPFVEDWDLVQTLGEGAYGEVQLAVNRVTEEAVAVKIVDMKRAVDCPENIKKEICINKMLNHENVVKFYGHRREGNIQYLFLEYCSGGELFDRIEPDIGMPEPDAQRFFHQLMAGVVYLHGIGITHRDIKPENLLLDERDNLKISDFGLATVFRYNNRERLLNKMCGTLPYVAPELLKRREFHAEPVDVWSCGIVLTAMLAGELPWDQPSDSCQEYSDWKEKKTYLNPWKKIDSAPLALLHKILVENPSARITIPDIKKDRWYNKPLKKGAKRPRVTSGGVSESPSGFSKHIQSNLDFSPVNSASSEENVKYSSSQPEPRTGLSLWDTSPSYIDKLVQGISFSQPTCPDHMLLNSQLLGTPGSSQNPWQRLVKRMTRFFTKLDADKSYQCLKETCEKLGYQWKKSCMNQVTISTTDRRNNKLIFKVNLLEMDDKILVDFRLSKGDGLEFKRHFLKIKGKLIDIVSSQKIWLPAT

## CN(c1ccc2ccc3ncc(-c4cnn(C)c4)cc3c(=O)c2c1)S(=O)(=O)NCc1ccccn1
[1]; compound 0.1 µM
  inhibition: -1.8%
[1]; compound 1.0 µM
  inhibition: 42.1%
AKT3 (human); compound 0.1 µM
  inhibition: 6.2%
AKT3 (human); compound 1.0 µM
  inhibition: 5.2%
AURKA (human); compound 0.1 µM
  inhibition: 39.7%
AURKA (human); compound 1.0 µM
  inhibition: 87.5%
BMX (human); compound 0.1 µM
  inhibition: 1.8%
BMX (human); compound 1.0 µM
  inhibition: 8%
CAMK2D (human)
  inhibition: -1.3%
CHEK1 (human); compound 0.1 µM
  inhibition: 3.6%
CHEK1 (human); compound 1.0 µM
  inhibition: 2.6%
CSNK1A1 (human); compound 0.1 µM
  inhibition: -7.8%
CSNK1A1 (human); compound 1.0 µM
  inhibition: 7.2%
DYRK1A (human); compound 0.1 µM
  inhibition: 7.9%
DYRK1A (human); compound 1.0 µM
  inhibition: 40.1%
EGFR (human); compound 0.1 µM
  inhibition: -4.8%
EGFR (human); compound 1.0 µM
  inhibition: 7%
[2]; compound 0.1 µM
  inhibition: 49.8%
[2]; compound 1.0 µM
  inhibition: 86.5%
GSK3B (human); compound 0.1 µM
  inhibition: -6.8%
GSK3B (human); compound 1.0 µM
  inhibition: 4.8%
HCK (human); compound 0.1 µM
  inhibition: 9.4%
HCK (human); compound 1.0 µM
  inhibition: 14.6%
IRAK4 (human); compound 0.1 µM
  inhibition: 7%
IRAK4 (human); compound 1.0 µM
  inhibition: 16.1%
KDR (human); compound 0.1 µM
  inhibition: 33.2%
KDR (human); compound 1.0 µM
  inhibition: 93.1%
LCK (human); compound 0.1 µM
  inhibition: -3.5%
LCK (human); compound 1.0 µM
  inhibition: 11.3%
LYN (human); compound 0.1 µM
  inhibition: 2.5%
LYN (human); compound 1.0 µM
  inhibition: 25.1%
MAPK11 (human); compound 0.1 µM
  inhibition: -0.1%
MAPK11 (human); compound 1.0 µM
  inhibition: -5.4%
MAPK13 (human); compound 0.1 µM
  inhibition: -0.3%
MAPK13 (human); compound 1.0 µM
  inhibition: 9.8%
MAPK3 (human); compound 0.1 µM
  inhibition: 0.9%
MAPK3 (human); compound 1.0 µM
  inhibition: -7.3%
MAPKAPK2 (human); compound 0.1 µM
  inhibition: -0.4%
MAPKAPK2 (human); compound 1.0 µM
  inhibition: 2.9%
MAPKAPK5 (human); compound 0.1 µM
  inhibition: 10.5%
MAPKAPK5 (human); compound 1.0 µM
  inhibition: 3%
MARK2 (human); compound 0.1 µM
  inhibition: -3.7%
MARK2 (human); compound 1.0 µM
  inhibition: 12.6%
MARK3 (human); compound 0.1 µM
  inhibition: -1.8%
MARK3 (human); compound 1.0 µM
  inhibition: 5.3%
PIM2 (human); compound 0.1 µM
  inhibition: 1.2%
PIM2 (human); compound 1.0 µM
  inhibition: 5.1%
PRKACA (human); compound 0.1 µM
  inhibition: -11.5%
PRKACA (human); compound 1.0 µM
  inhibition: -3.3%
PRKCB2 (human); compound 0.1 µM
  inhibition: 2.8%
PRKCB2 (human); compound 1.0 µM
  inhibition: 8.1%
PRKCH (human); compound 0.1 µM
  inhibition: 10%
PRKCH (human); compound 1.0 µM
  inhibition: 3.2%
PRKCQ (human); compound 0.1 µM
  inhibition: -2.9%
PRKCQ (human); compound 1.0 µM
  inhibition: -2%
RAF1 (human); compound 0.1 µM
  inhibition: -6.5%
RAF1 (human); compound 1.0 µM
  inhibition: -0.8%
RPS6KA1 KD1 KD2 (human); compound 0.1 µM
  inhibition: -2.7%
RPS6KA1 KD1 KD2 (human); compound 1.0 µM
  inhibition: 2.1%
RPS6KA4 KD1 KD2 (human); compound 0.1 µM
  inhibition: -2.2%
RPS6KA4 KD1 KD2 (human); compound 1.0 µM
  inhibition: 7.4%
SGK1 (human); compound 0.1 µM
  inhibition: -0.4%
SGK1 (human); compound 1.0 µM
  inhibition: 6.4%
STK3 (human); compound 0.1 µM
  inhibition: -6%
STK3 (human); compound 1.0 µM
  inhibition: 7.6%
SYK (human); compound 0.1 µM
  inhibition: 8.7%
SYK (human); compound 1.0 µM
  inhibition: 15.8%
